# In US6861434B2, “Antipsychotic aminomethyl derivatives of 1,3,7,8-tetrahydro-6,9-dioxa-1,3-diaza-cyclopenta[a]-naphthalen-2-one” (Wyeth, priority 2001, dated 2005):
# Structures can show the parent of a compound that is named as a salt.
# Biological target: T1, dopamine D2 receptor (Rattus norvegicus, UniProt P61169)
# T1 construct: from tissue; host or cells: rat striatal brain tissue homogenate
# Assay: Dopamine D2 receptor affinity, 3H-quinpirole binding in homogenized rat striatal brain tissue
# Experimental: Affinity for the dopamine D2 receptor was established by a modification of the standard experimental test procedure of Seemen and Schaus, European Journal of Pharmacology 203: 105-109, 1991, wherein homogenized rat striatal brain tissue is incubated with ^3H-quinpirole and various concentrations of test compound, filtered and washed and counted in a Betaplate scintillation counter.
# T1 sequence (P61169 whole entry): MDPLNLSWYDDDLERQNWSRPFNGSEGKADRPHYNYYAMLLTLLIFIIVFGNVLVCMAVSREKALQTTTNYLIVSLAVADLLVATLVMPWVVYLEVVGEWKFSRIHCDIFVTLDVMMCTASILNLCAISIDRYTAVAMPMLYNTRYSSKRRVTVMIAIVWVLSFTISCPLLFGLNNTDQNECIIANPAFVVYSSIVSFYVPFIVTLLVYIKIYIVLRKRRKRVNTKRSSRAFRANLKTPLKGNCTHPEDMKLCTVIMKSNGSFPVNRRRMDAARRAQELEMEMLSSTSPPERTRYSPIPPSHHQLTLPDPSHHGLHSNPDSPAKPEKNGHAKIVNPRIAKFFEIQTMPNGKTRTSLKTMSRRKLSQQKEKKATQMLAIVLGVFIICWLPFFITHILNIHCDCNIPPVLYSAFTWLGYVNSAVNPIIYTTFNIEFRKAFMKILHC
row,Compound,IC50 [nM]
1,"O=c1[nH]c2ccc3c(c2[nH]1)OC(CNCc1ccccc1)CO3 (stereo not drawn) [Example 1, 8-(Benzylamino-methyl)-1,3,7,8-tetrahydro-6,9-dioxa-1,3-diaza-cyclopenta[a]naphthalen-2-one]",0.39
2,"O=c1[nH]c2ccc3c(c2[nH]1)OC(CNCCCCc1ccccc1)CO3 (stereo not drawn) [Example 2, 8-[(4-Phenyl-butylamino)-methyl]-1,3,7,8-tetrahydro-6,9-dioxa-1,3-diaza-cyclopenta[a]naphthalen-2-one]",0.18
3,"O=c1[nH]c2ccc3c(c2[nH]1)OC(CN1CC=C(c2ccccc2)CC1)CO3 (stereo not drawn) [Example 3, 8-(4-Phenyl-5,6-dihydro-2H-pyridin-1-ylmethyl)-1,3,7,8-tetrahydro-6,9-dioxa-1,3-diaza-cyclopenta[a]naphthalen-2-one]",1.3
4,"O=c1[nH]c2ccc3c(c2[nH]1)OC(CNCC12CC4CC(CC(C4)C1)C2)CO3 (stereo not drawn) [Example 4, 8-{[(Adamantan-1-ylmethyl)-amino]-methyl}-1,3,7,8-tetrahydro-6,9-dioxa-1,3-diaza-cyclopenta[a]naphthalen-2-one]",0.84
5,O=c1[nH]c2ccc3c(c2[nH]1)O[C@@H](CN1CCc2ccccc2C1)CO3 [Example 5],6.78
6,"O=C(c1ccc(F)cc1)C1CCN(C[C@H]2COc3ccc4[nH]c(=O)[nH]c4c3O2)CC1 [Example 6, 8-[4-(4-Fluoro-benzoyl)-piperidin-1-ylmethyl]-1,3,7,8-tetrahydro-6,9-dioxa-1,3-diaza-cyclopenta[a]naphthalen-2-one]",1.43
7,"CC(=O)Nc1cccc(OCCCNCC2COc3ccc4[nH]c(=O)[nH]c4c3O2)c1 (stereo not drawn) [Example 7, N-(3-{3-[(2-Oxo-2,3,7,8-tetrahydro-1H-6,9-dioxa-1,3-diaza-cyclopenta[a]naphthalen-8-ylmethyl)-amino]propoxy}-phenyl)-acetamide]",0.55
8,"O=c1[nH]c2ccc3c(c2[nH]1)OC(CNCCCc1c[nH]c2ccccc12)CO3 (stereo not drawn) [Example 8, 8-{[3-(1H-indol-3-yl)-propylamino]-methyl}-1,3,7,8-tetrahydro-6,9-dioxa-1,3-diaza-cyclopenta[a]naphthalen-2-one]",0.02

# Test system: not given
# Assay: not given
row,Compound,melting point
1,"O=c1[nH]c2ccc3c(c2[nH]1)OC(CNCc1ccccc1)CO3 (stereo not drawn) (as salt: fumarate) (hydrate or solvate) [Example 1, 8-(Benzylamino-methyl)-1,3,7,8-tetrahydro-6,9-dioxa-1,3-diaza-cyclopenta[a]naphthalen-2-one]",149 to 151 °C
2,"O=c1[nH]c2ccc3c(c2[nH]1)OC(CNCCCCc1ccccc1)CO3 (stereo not drawn) (as salt: fumarate) (hydrate or solvate) [Example 2, 8-[(4-Phenyl-butylamino)-methyl]-1,3,7,8-tetrahydro-6,9-dioxa-1,3-diaza-cyclopenta[a]naphthalen-2-one]",224 to 226 °C
3,"O=c1[nH]c2ccc3c(c2[nH]1)OC(CN1CC=C(c2ccccc2)CC1)CO3 (stereo not drawn) (as salt: fumarate) (hydrate or solvate) [Example 3, 8-(4-Phenyl-5,6-dihydro-2H-pyridin-1-ylmethyl)-1,3,7,8-tetrahydro-6,9-dioxa-1,3-diaza-cyclopenta[a]naphthalen-2-one]",205 to 209 °C
4,"CC(=O)Nc1cccc(OCCCNCC2COc3ccc4[nH]c(=O)[nH]c4c3O2)c1 (stereo not drawn) (as salt: fumarate) (hydrate or solvate) [Example 7, N-(3-{3-[(2-Oxo-2,3,7,8-tetrahydro-1H-6,9-dioxa-1,3-diaza-cyclopenta[a]naphthalen-8-ylmethyl)-amino]propoxy}-phenyl)-acetamide]",125 °C (dec.)
5,"O=c1[nH]c2ccc3c(c2[nH]1)OC(CNCC12CC4CC(CC(C4)C1)C2)CO3 (stereo not drawn) (as salt: hydrochloride) (hydrate or solvate) [Example 4, 8-{[(Adamantan-1-ylmethyl)-amino]-methyl}-1,3,7,8-tetrahydro-6,9-dioxa-1,3-diaza-cyclopenta[a]naphthalen-2-one]",> 250 °C
6,O=c1[nH]c2ccc3c(c2[nH]1)OC(CN1CCC2C=CC=CC2C1)CO3 (stereo not drawn) (as salt: hydrochloride) [Example 5],> 275 °C
7,"O=c1[nH]c2ccc3c(c2[nH]1)OC(CNCCCc1c[nH]c2ccccc12)CO3 (stereo not drawn) (as salt: hydrochloride) [Example 8, 8-{[3-(1H-indol-3-yl)-propylamino]-methyl}-1,3,7,8-tetrahydro-6,9-dioxa-1,3-diaza-cyclopenta[a]naphthalen-2-one]",200 to 207 °C (dec.)
